Values joined by “and” are separate entries in the source; they are usually repeats but may differ in a detail not shown here. Equal entries are not always repeated.
Row | Structure (SMILES) | melting point
1 | NCCCCCCN [1,6-diaminohexane] | 41 °C
2 | C=CCCCCCC [1-octene] | -102 °C
3 | CCCCCCCCCCCBr [1-bromoundecane] | -9 °C
4 | CC(=O)c1ccc(Br)cc1 [4'-bromoacetophenone] | 51 °C
5 | O=C1OC(=O)C2C1C1(Cl)C(Cl)=C(Cl)C2(Cl)C1(Cl)Cl (stereo unspecified) [chlorendic anhydride] | 237 °C
6 | C=CCc1ccccc1 [allylbenzene] | -50 °C
7 | OC[C@@H](O)[C@@H](O)[C@H](O)[C@@H](O)CO [sorbitol] | 111 °C
8 | CCCC=CB(O)O [1-pentenylboronic acid] | 80 °C
9 | Clc1ccc(Cl)cc1 [1,4-dichlorobenzene] | 54 °C
10 | CCCCCCOC(C)=O [hexyl_acetate] | -80 °C
11 | CC12CCC=C1C1CCC3CC(=O)CCC3(C)C1CC2 (stereo unspecified) [androst-14-en-3-one] | 116 °C
12 | Clc1ccc(Br)cc1 [p-bromochlorobenzene] | 67 °C
13 | Cc1cccc(N)c1 [m-toluidine] | -30 °C
14 | OCCCCC(O)CO (stereo unspecified) [1,2,6-hexanetriol] | -20 °C
15 | CCCCCCCCCCCCCCCCI [1-Iodohexadecane] | 22 °C
16 | C=C(Cl)CCl [2,3-dichloro-1-propene] | -83 °C
17 | CCC(=O)CC [3-pentanone] | -39 °C
18 | C[SiH](C)Cl [chlorodimethylsilane] | -111 °C
19 | N#Cc1cccc(Cl)c1 [3-chlorobenzonitrile] | 41 °C
20 | Cc1ccc([N+](=O)[O-])cc1 [4-nitrotoluene] | 53 °C

Row | Structure (SMILES) | melting point
21 | CCO[SiH](OCC)OCC [triethoxysilane] | -170 °C
22 | C1CCOCC1 [Tetrahydropyran] | -45 °C
23 | CC1=CCC(C(C)(C)O)CC1 (stereo not drawn) [alpha-terpineol] | 32 °C
24 | CCCC(=O)OCC [ethyl butyrate] | -93 °C
25 | C[C@@H]1C[C@@H]([C@H](O)CC2CC(=O)NC(=O)C2)C(=O)[C@@H](C)C1 | 120 °C
26 | CCCCCCCO [1-heptanol] | -34 °C (2×) and -33.2 °C
27 | N#CCCO [3-hydroxypropionitrile] | -46 °C
28 | Clc1ccccc1 [Chlorobenzene] | -45 °C
29 | CCC(CC)CO [2-ethyl-1-butanol] | -52 °C
30 | CC(C)(C)OC(=O)N[C@H](CO)C(=O)O [N-boc-D-serine] | 90 °C
31 | c1ccc(C23CCN(CC2)CC3)cc1 [4-phenylquinuclidine] | 124 °C
32 | CSc1cnccn1 [2-(methylthio)pyrazine] | 44 °C
33 | OCCCCCCCCCCCCO [1,12-dodecanediol] | 83 °C
34 | C[C@]12CC[C@H]3[C@@H](CCC4=CC(=O)CC[C@@]43C)[C@@H]1CC[C@@H]2C(=O)CO [deoxycorticosterone] | 142 °C
35 | COC(F)(F)C(Cl)Cl [Methoxyflurane] | -35 °C
36 | Cc1ccc(N)cc1 [p-toluidine] | 44 °C
37 | CP(C)CCP(C)C [1,2-bis(dimethylphosphino)ethane] | 180 °C
38 | CCOC(=O)C=C1SC(N2CCCCC2)C(=O)N1CC (stereo unspecified) | 86 °C
39 | O=C(O)CCCCCC(=O)O [Pimelic Acid] | 106 °C
40 | ClC(Cl)=C(Cl)Cl [tetrachloroethylene] | -22 °C

Row | Structure (SMILES) | melting point
41 | O=CC=O [glyoxal] | 15 °C
42 | CCCS [1-propanethiol] | -113 °C
43 | CC(O)C(=O)O (stereo unspecified) [lactic acid] | 18 °C
44 | CCCCCCCCCCI [1-iododecane] | -16 °C
45 | CCNc1nc(NC(C)(C)C)nc(SC)n1 [Terbutryn] | 105 °C
46 | N=C(N)NCCC[C@@H](N)C(=O)O [D-arginine] | 235 °C
47 | ICCI [1,2-diiodoethane] | 81 °C
48 | O=[N+]([O-])c1ccc(Cl)c(Cl)c1Cl [2,3,4-trichloronitrobenzene] | 56 °C and 55.5 °C
49 | CC(C)[N+](=O)[O-] [2-Nitropropane] | -93 °C
50 | CCC1(CC)C(=O)NC(=O)NC1=O [5,5-diethylbarbiturate] | 190 °C
51 | CS(=O)(=O)O [methanesulfonic acid] | 20 °C
52 | CNC=O [n-methylformamide] | -40 °C
53 | CCCCCC(=O)O [hexanoic acid] | -1.9 °C
54 | CC1(O)CCCCC1 [1-methylcyclohexanol] | 26 °C
55 | CC(=O)Oc1ccc(-c2ccccc2)cc1 [4-acetoxybiphenyl] | 88 °C
56 | CCCCCCC(C)=O [2-octanone] | -16 °C
57 | CCOc1ccc(N)cc1 [4-Ethoxyaniline] | 3 °C
58 | CNC(=O)Oc1cccc2ccccc12 [1-Naphthyl methylcarbamate] | 142 °C

Continued, values first:

Row | melting point | Structure (SMILES)
59 | 134 °C | Cn1c(/C(C#N)=C/c2ccc(F)cc2)nc2ccccc21
60 | 67 °C | CCOC(=O)C1c2ccccc2Oc2ccccc21 [ethyl xanthene-9-carboxylate]
61 | 72 °C | O=[N+]([O-])c1ccccc1CO [2-nitrobenzyl alcohol]
62 | 159 °C | CN(C)C(=O)Nc1ccc(Cl)c(Cl)c1 [Diuron]
63 | 124 °C | CC(=O)Nc1ccc(Br)c(Cl)c1 [4'-bromo-3'-chloroacetanilide]
64 | 128 °C | C=Cc1cccc(B(O)O)c1 [3-vinylbenzeneboronic acid]
65 | 152 °C | OB(O)c1c(Cl)cccc1Cl [2,6-dichlorobenzeneboronic acid]
66 | 59 °C | COc1ccc2c(OC)cccc2c1 [1,6-dimethoxynaphthalene]
67 | 116 °C | N#Cc1ccc2c(c1)N(CCCN1CCC(O)CC1)c1ccccc1S2 [perciyazine]
68 | 62 °C | Cc1cc(C)c(N=C=S)c(C)c1 [2,4,6-trimethylphenyl isothiocyanate]
69 | 118 °C | OCc1ccc(O)cc1 [4-hydroxybenzyl alcohol]
70 | 84 °C | O=Cc1ccc(N2CCCC2)cc1 [4-(1-pyrrolidinyl)benzaldehyde]
71 | 103 °C | C(=N\c1ccccc1Nc1ccccc1/N=C/c1ccccc1)/c1ccccc1
72 | 119 °C | COc1cc(C(C)=O)cc(OC)c1O [3',5'-dimethoxy-4'-hydroxyacetophenone]
73 | 37.5 °C | OCc1c(F)c(F)c(F)c(F)c1F [2,3,4,5,6-Pentafluorobenzyl Alcohol]
74 | 71.5 °C | Cc1ccc(C)n1-c1ccc(C(F)(F)F)cc1 [OSM-S-27]
75 | 80 °C | Cc1cc(Br)cc(C)c1N=C=S [4-bromo-2,6-dimethylphenyl isothiocyanate]
76 | 272 °C | NS(=O)(=O)c1cc2c(cc1C(F)(F)F)NCNS2(=O)=O [hydroflumethiazide]
77 | -43 °C | CCc1ccc(CC)cc1 [1,4-diethylbenzene]
78 | 29 °C | CC(=O)c1ccc(Cl)cc1O [4'-chloro-2'-hydroxyacetophenone]
79 | 183 °C | Nc1cccc(-n2ccccc2=O)c1 [1-(3-Aminophenyl)pyridin-2(1H)-one]
80 | 46 °C | Oc1ccccc1C(F)(F)F [2-(trifluoromethyl)phenol]
81 | 187 °C | COc1ccc2cc([N+](=O)[O-])ccc2c1C(=O)O [2-methoxy-6-nitronaphthalene-1-carboxylic acid]
82 | 270 °C | NS(=O)(=O)c1cc2c(cc1Cl)NCNS2(=O)=O [hydrochlorothiazide]
83 | -19 °C | CC(=O)c1ccc(C)cc1 [4'-methylacetophenone]
84 | 114 °C | O=C(c1ccccc1)c1cccc(O)c1 [3-hydroxybenzophenone]
85 | 84 °C | CC(=O)/C(=N/Nc1cc(Cl)ccc1Cl)C(=O)C(F)(F)F

Row | melting point | Structure (SMILES)
86 | 73 °C | N#Cc1ccncc1Cl [3-chloro-4-cyanopyridine]
87 | 117 °C | COc1ccc2c(c1)no[n+]2[O-] [5-methoxybenzofuroxan]
88 | 160 °C | CSc1cccc(B(O)O)c1 [3-(methylthio)benzeneboronic acid]
89 | 274 °C | NS(=O)(=O)c1cc2c(cc1Cl)NCNS2(=O)=O [Hydrochlorothiazide]
90 | 153 °C | C=CC1=C(/C=N/Nc2ccc([N+](=O)[O-])cc2[N+](=O)[O-])CCCC1
91 | 249 °C | COC(=O)[C@H](Cc1ccccc1)NC(=O)[C@@H](N)CC(=O)O [Methyl L-alpha-aspartyl-L-phenylalaninate]
92 | 196 °C | CN(C)CCC=C1c2ccccc2CCc2ccccc21 [amitriptyline]
93 | 175 °C | Oc1ccc(O)cc1 [hydroquinone]
94 | 250 °C | Nc1nc(=O)c2ncn(COC(CO)CO)c2[nH]1 [Ganciclovir]
95 | 163 °C | CC(C)(C)c1ccc(O)c(N)c1 [2-amino-4-tert-butylphenol]
96 | 159 °C | O=C(O)c1ccccc1O [Salicylic acid]
97 | 295 °C | O=C(O)c1cc(Cl)c(C(=O)O)cc1Cl [2,5-dichloroterephthalic acid]
98 | 90 °C | CC(=O)OC1CCCC2=CC(=O)CCC21C (stereo unspecified)
99 | 86 °C | CNC(=O)c1ccc(-c2ccccc2)cc1 [p-phenyl-n-methylbenzamide]
100 | 38 °C | OCc1ccc(Cl)c(Cl)c1 [3,4-dichlorobenzyl alcohol]
101 | 151 °C | O=C(c1ccc(Cl)cc1)c1nn(-c2ccccc2)/c(=N\N=C\c2ccc(F)cc2)s1
102 | 330 °C | O=C\1c3c(O/C(=C/1)c2ccc(O)c(O)c2)cc(O)cc3O [luteolin]
103 | 156 °C | O=C1c2ccccc2Cc2ccccc21 [Anthracen-9(10H)-one]
104 | 45 °C | OCc1ccc(F)cc1Cl [2-chloro-4-fluorobenzyl alcohol]
105 | 191 °C | O=C1O[C@H]([C@@H](O)CO)C(O)=C1O [ascorbic acid]
106 | 33 °C | O=C1c2ccccc2CCc2ccccc21 [dibenzosuberone]
107 | 59.5 °C | c1ccc2c(c1)Oc1ccccc1S2 [Phenoxathiine]
108 | 249 °C | O=C(O)c1cc(/N=N/c2ccc(S(=O)(=O)Nc3ccccn3)cc2)ccc1O
109 | 160 °C | CC(=O)Nc1ccc(C=O)cc1 [4-acetamidobenzaldehyde]
110 | 175 °C | Nc1cccc(C(=O)O)c1 [3-aminobenzoic acid]
111 | 116 °C and 115 °C | c1ccc2c(c1)Cc1ccccc1-2 [fluorene]
